Experimental data: patent US4656190A, “Indene derivatives and their use as PAF-antagonists” (Merck & Co., Inc., priority 1983, dated 1987)
Like-named read-outs stand apart in the source and are kept apart here.

What was measured:
[1] = biological target: T1, PAF specific receptor binding site on rabbit platelet plasma membranes (Oryctolagus cuniculus, UniProt G1TEI7); experiment: Inhibition of 3H-PAF binding to rabbit platelet plasma membranes; conditions: read-out: % Inhibition of PAF Binding
T1 construct: from tissue; host or cells: rabbit platelets (plasma membrane suspension)
Description: In vitro, they inhibit PAF-induced functions in both the cellular and tissue levels by disturbing the PAF binding to its specific receptor site. The ability of a compound of formula (I) to inhibit the PAF binding to its specific receptor binding site on rabbit platelet plasma membranes was measured by an assay recently developed by us.
The inhibition of H^3 -PAF binding to the rabbit platelet plasma membrane by a PAF-antagonist of Formula (I) was determined by a method employing isotropic labeling and filtration techniques. Generally, a series of Tris-buffered solutions of the selected antagonist at predetermined concentrations were prepared. Each of these solutions contains 1 pmole of ^3 H-PAF, a known amount of the test antagonist, and a sufficient amount of the pH 7.5 Tris-buffer solution (10 mM Tris, 0.25% bovine serum albumin, and 150 mM NaCl per ml water) to make the final volume of 1 ml. After adding into a set of test tubes each with 100 μg of the platelet plasma membrane suspension (S. B. Hwang, et al., Biochemistry, 22, 4756 (1983)) and one of the Tris-buffer solutions described above, the resulting mixture in each test tube was incubated at 0° C. for about one hour or until the reaction was complete. Two control samples, one of which (C1) contains all the ingredients described above except the antagonist and the other (C2) contains C1 plus a 1000-fold excess of unlabeled PAF, were also prepared and incubated simultaneously with the test samples. After the incubation was completed, the contents of each test tube were filtered under vacuo through a Whatman GF/C fiberglass filter and the residue washed rapidly several times with a total of 20 ml cold (0°-5° C.) Tris-buffer solution. Each washed residue was then suspended in 10 ml scintillation solution (Aquasol 2, New England Nuclear, Connecticut) and the radioactivity was counted in a Packard Tri-Carb 460CD Liquid Scintillation System. Defining the counts from a test sample as "Total binding with antagonist"; the counts from the control sample C1, as "Total binding C1 "; and the counts from the control sample C2 as "non-specific binding C2 ", the percent inhibition of each test antagonist can be determined by the following equation: [formula]

[2] = test system: PAF-induced cutaneous vascular permeability; experiment: In vivo assay: inhibition of PAF-induced increase of cutaneous vasopermeability in guinea pigs after oral dosing; conditions: guinea pig
Description: The specific PAF-antagonistic activities are further established by in vivo assays following the protocol (modified procedure of Humphrey et al., Lab. Investigation, 46, 422 (1982)) described below:
Protocol for the Evaluation of the Oral Activity of
PAF Antagonists or the Inhibition of PAF-Induced
Increase of Vasopermeability by PAF-Antagonists
I. Animal species: 5 guinea pigs (400-500 g)
(4.) Ground and suspend a PAF antagonist of formula
(I) with intensive sonication in 3 ml of 0.5%
aqueous methylcellulose solution.
(5.) Administer orally to each of the animals T1,
T2, T3 and T4 an appropriate amount (in
terms of mg/kg of bodyweight) of the antagonist
solution from 4), except the control animal
(6.) Forty minutes after the oral administration,
(7.) After 20 minutes or when the anesthetics became
effective, inject intracardially to each animal
and inject intracutaneously, in duplicate 0.1
ml of a PAF solution in Tris-buffer or 0.1 ml
of the Tris-buffer itself (control) according
(9.) Wait for 30 minutes or until the blue color
(13.) In the meantime, extract a 100 μl sample of
(15.) Measure the absorbance of each supernatant from
Palo Alto, CA). Calculate the amount of Evans
blue in each skin sample in terms of the volume
(μl) of the exuded blood plasma according to
the following equation: […]
(16.) Draw a plasma exudation curve
(17.) Calculate the percent inhibition of PAF-induced
cutaneous vascular permeability from measuring
the area under the plasma exudation curve of
the control animal (AC) and that of an
animal treated orally with an antagonist
(AD), for example T1, according to the […]

[3] = Table 1, E (trans), dose 0.1 μM
[4] = Table 1, E (trans), dose 0.5 μM

T1 sequence (G1TEI7 1-342): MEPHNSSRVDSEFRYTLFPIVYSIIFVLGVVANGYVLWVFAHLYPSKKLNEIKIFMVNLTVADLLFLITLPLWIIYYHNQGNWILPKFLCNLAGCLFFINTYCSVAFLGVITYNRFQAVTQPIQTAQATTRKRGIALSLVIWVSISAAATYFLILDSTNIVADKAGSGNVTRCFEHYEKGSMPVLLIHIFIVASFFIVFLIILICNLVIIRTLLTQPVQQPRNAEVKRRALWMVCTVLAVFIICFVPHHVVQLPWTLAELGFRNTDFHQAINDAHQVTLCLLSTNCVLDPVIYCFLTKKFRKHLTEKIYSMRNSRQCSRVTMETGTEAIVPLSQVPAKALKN

| SMILES | inhibition at 0.05 µM [1] [%] | inhibition at 0.1 µM [1] [%] | inhibition at 0.25 µM [1] [%] | inhibition at 0.5 µM [1] [%] | inhibition at 1 µM [1] [%] | inhibition at 2.5 µM [1] [%] | inhibition at 5 µM [1] [%] | % In Vivo Inhibition of PAF Receptor ([2]; 10 mg/kg) [%] | % In Vivo Inhibition of PAF Receptor ([2]; 20 mg/kg) [%] | % In Vivo Inhibition of PAF Receptor ([2]; 30 mg/kg) [%] | inhibition at 0.1 µM [1, 3] [%] | inhibition at 0.5 µM [1, 4] [%] | inhibition at 1 µM ([1]; Table 1, E (trans), dose 1 μM) [%] | inhibition at 5 µM ([1]; Table 1, E (trans), dose 5 μM) [%] | % In Vivo Inhibition of PAF Receptor ([2]; 50 mg/kg) [%] |
| --- | --- | --- | --- | --- | --- | --- | --- | --- | --- | --- | --- | --- | --- | --- | --- |
| COCCC1=C(C)/C(=C\c2ccc(S(N)(=O)=O)cc2)c2ccc(OC)cc21 [E CH2CH2OCH3 / SO2NH2 / OCH3, E 1-(4-aminosulfonylphenyl)methylene-5-methoxy-2-methyl-1H-3-indenyl-(2-methoxy)ethane] | 20 | 40 | 58 | 76 | 80 | 100 | 100 | 28 | 60 | 67 |  |  |  |  |  |
| COc1ccc2c(c1)C(CCS(C)(=O)=O)=C(C)/C2=C\c1ccc(S(N)(=O)=O)cc1 [E CH2CH2SO2CH3 / SO2NH2 / OCH3, E 1-(4-aminosulfonylphenyl)methylene-5-methoxy-2-methyl-1H-3-indenyl-(2-methylsulfonyl)ethane] |  |  |  |  |  |  |  | 9 | 45 |  | 35 | 61 | 81 | 100 |  |
| COc1ccc2c(c1)C(CCSC)=C(C)/C2=C\c1ccc(S(N)(=O)=O)cc1 [E CH2CH2SCH3 / SO2NH2 / OCH3, E 1-(4-aminosulfonylphenyl)methylene-5-methoxy-2-methyl-1H-3-indenyl-(2-methylthio)ethane] |  |  |  |  |  |  |  | 30 | 46 |  | 34 | 78 | 100 |  |  |
| COC(=O)CC1=C(C)/C(=C\c2ccc(S(N)(=O)=O)cc2)c2ccc(OC)cc21 [E CH2COOCH3 / SO2NH2 / OCH3, E methyl 1-(4-aminosulfonylphenyl)methylene-5-methoxy-2-methyl-1H-3-indenylacetate] |  |  |  |  |  |  |  |  |  |  | 35 | 70 | 84 | 100 | 0 |
